Values quoted from earlier work in patent US20060094692A1, “Pharmaceutical formulations of camptothecins and process for making same” (BioNumerik Pharmaceuticals, Inc., priority 2004, published 2006).

Conditions: fraction of the potency of the lactone form

For `CC[C@@](O)(C(=O)O)c1cc2n(c(=O)c1CO)Cc1cc3ccccc3nc1-2` [carboxylate form of CPT], the “antitumor potency relative to the lactone form of CPT” value is given as “approximately one-tenth or less”.
